# Data taken from article PMC9309644, “Functional analysis of thermo-sensitive TRPV1 in an aquatic vertebrate, masu salmon (Oncorhynchus masou ishikawae)” (Biochemistry and Biophysics Reports, 2022).
# Molecular target: T1, OmTRPV1 (Oncorhynchus masou, UniProt Z9PIN9CDR2)
# T1 construct: cDNA cloned from spinal cord into pOX(+) via EcoRI/NotI; forward primer starts at ATG, reverse primer with stop codon; cRNA-injected Xenopus laevis oocytes; S487 and V525 correspond to mammalian S512 and T550
# T1 sequence (Z9PIN9CDR2 1-804): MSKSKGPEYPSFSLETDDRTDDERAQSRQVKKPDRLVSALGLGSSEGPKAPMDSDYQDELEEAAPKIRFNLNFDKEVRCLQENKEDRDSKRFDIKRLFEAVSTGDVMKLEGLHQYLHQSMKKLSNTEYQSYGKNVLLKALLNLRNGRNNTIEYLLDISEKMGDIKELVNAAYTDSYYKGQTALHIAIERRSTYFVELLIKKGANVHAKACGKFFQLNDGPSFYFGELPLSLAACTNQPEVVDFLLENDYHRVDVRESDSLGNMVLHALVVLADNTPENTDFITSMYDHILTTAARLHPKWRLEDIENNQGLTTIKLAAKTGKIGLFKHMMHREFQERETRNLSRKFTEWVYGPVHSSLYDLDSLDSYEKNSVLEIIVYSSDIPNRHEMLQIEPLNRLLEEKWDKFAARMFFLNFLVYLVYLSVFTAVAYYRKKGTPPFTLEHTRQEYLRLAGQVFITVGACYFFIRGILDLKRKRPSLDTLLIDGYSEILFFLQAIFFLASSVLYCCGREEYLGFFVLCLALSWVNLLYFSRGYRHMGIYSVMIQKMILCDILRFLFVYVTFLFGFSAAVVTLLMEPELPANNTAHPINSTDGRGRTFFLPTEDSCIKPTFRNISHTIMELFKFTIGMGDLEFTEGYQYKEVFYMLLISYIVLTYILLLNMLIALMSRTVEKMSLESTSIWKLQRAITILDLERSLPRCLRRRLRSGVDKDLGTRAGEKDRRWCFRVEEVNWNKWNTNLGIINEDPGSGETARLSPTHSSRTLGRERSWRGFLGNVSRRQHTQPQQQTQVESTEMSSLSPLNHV
# Test: two-electrode voltage-clamp, Xenopus laevis oocytes
# Assay type: cell-based
smiles,measurement,value
COc1cc(CNC(=O)CCCC/C=C/C(C)C)ccc1O [capsaicin],EC50,10.4 µM
